SMILES strings stand for the structures.

This note sets out measurements from BindingDB's records for patent US20240270732 (Chengdu Biobel Biotechnology Co., 2024).

The experiment deals with T1, Receptor-interacting serine/threonine-protein kinase 1 (Homo sapiens, UniProt Q13546).
T1 sequence (Q13546 whole entry): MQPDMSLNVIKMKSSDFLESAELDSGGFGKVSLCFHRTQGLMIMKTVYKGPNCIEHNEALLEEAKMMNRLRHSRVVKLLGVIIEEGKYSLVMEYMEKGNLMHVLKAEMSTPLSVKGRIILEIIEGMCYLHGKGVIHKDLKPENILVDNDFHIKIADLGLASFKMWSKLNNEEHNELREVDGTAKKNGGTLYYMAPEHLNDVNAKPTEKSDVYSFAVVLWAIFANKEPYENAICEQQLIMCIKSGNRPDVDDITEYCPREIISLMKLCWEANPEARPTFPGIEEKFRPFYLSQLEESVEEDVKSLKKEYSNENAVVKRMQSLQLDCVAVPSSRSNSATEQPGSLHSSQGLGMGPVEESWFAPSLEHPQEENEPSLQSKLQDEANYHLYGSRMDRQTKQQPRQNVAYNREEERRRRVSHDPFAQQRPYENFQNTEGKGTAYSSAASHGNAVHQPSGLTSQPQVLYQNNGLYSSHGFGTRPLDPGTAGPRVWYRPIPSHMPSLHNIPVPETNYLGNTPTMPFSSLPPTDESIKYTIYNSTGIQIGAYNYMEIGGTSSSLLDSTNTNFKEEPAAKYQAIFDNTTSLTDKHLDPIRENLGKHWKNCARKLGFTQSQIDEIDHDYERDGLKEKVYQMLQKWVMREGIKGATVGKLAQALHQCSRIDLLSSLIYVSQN
In words: Inhibitory Activity Assay. The procedure: The compound of the present invention and the control compound were dissolved in the assay buffer (50 mM Hepes pH 7.5, 50 mM NaCl, 30 mM MgCl2, 1 mM DTT, 0.02% CHAPS, 0.5 mg/mL BSA), and diluted in a ratio of 1:1.5 using a 22-point titration (high concentration 2 μM), and then added to a 384-well plate. […] After completion of the reaction, 5 μL of ADP-Glo reagent containing 0.02% CHAPS was added to each well and incubated at room temperature for 1 h to terminate the kinase reaction and use up all remaining ATP. Then, 5 μL of ADP-Glo detection solution containing 0.02% CHAPS was added to each well and incubated at room temperature for 30 min to measure the emittance intensity.
For orientation: IC50 means the point on the concentration scale where inhibition reaches its midpoint. `C#CCN1CCN(CC#Cc2ccc3c(c2)N(C)C(=O)[C@@H](NC(=O)c2cc(Cc4ccccc4)on2)[C@@H](C)O3)CC1` [US20240270732, Compound I-45]: the IC50 was found to be 14.2 nM.
`CN1C(=O)[C@@H](NC(=O)c2n[nH]c(Cc3ccccc3)n2)COc2ccc(CCCN3CCN(CCCc4ccc5c(c4)N(C)C(=O)[C@@H](NC(=O)c4n[nH]c(Cc6ccccc6)n4)CO5)CC3)cc21` [US20240270732, Compound I-123] returned an IC50 of 3.17 nM.
As for `C#CCN1CCN(CC#Cc2ccc3c(c2)N(C)C(=O)[C@@H](NC(=O)c2cn(Cc4ccccc4)cn2)[C@@H](C)O3)CC1` [US20240270732, Compound I-59], the figure is 10.2 nM.
As for `C[C@@H]1Oc2ccc(C#CCN3CCN(CC#Cc4ccc5c(c4)N(C)C(=O)[C@@H](NC(=O)c4cn(Cc6ccccc6)cn4)[C@H](C)O5)CC3)cc2N(C)C(=O)[C@H]1NC(=O)c1cn(Cc2ccccc2)cn1` [US20240270732, Compound I-64], the figure is 62.2 nM; as for `C#CCN1CCN(CC#Cc2ccc3c(c2)N(C)C(=O)[C@@H](NC(=O)c2n[nH]c(Cc4cccc(O)c4)n2)[C@@H](C)O3)CC1` [US20240270732, Compound I-69], 19.4 nM; as for `C#CCN1CCN(CC#Cc2ccc3c(c2)N(C)C(=O)[C@@H](NC(=O)c2n[nH]c(Cc4ccccc4)n2)[C@@H](C)O3)CC1` [US20240270732, Compound I-14], 4.79 nM.
As for `O=C(N[C@H]1COc2ccc(C#CCN3CCN(CC#Cc4ccc5c(c4)NC(=O)[C@@H](NC(=O)c4n[nH]c(Cc6ccccc6)n4)CO5)CC3)cc2NC1=O)c1n[nH]c(Cc2ccccc2)n1` [US20240270732, Compound I-21], the figure is 9.69 nM; as for `CN(CCCC#Cc1ccc2c(c1)N(C)C(=O)[C@@H](NC(=O)c1ncn(Cc3ccccc3)n1)CO2)CCCC#Cc1ccc2c(c1)N(C)C(=O)[C@@H](NC(=O)c1ncn(Cc3ccccc3)n1)CO2` [US20240270732, Compound I-98], 17 nM; as for `C[C@H]1Oc2ccc(C#CCN3CCN(CC#Cc4ccc5c(c4)N(C)C(=O)[C@@H](NC(=O)c4cn(Cc6ccccc6)nn4)[C@@H](C)O5)CC3)cc2N(C)C(=O)[C@H]1NC(=O)c1cn(Cc2ccccc2)nn1` [US20240270732, Compound I-54], 14.7 nM.
Compound `C[C@H]1Oc2ccc(C#CCN3CCN(CC#CC#CCN4CCN(CC#Cc5ccc6c(c5)N(C)C(=O)[C@@H](NC(=O)c5n[nH]c(Cc7ccccc7)n5)[C@@H](C)O6)CC4)CC3)cc2N(C)C(=O)[C@H]1NC(=O)c1n[nH]c(Cc2ccccc2)n1` [US20240270732, Compound I-91] showed an IC50 of 4.36 nM.
For `C#CCN1CCN(CC#Cc2ccc3c(c2)N(C)C(=O)[C@@H](NC(=O)c2n[nH]c(Cc4cccc(N)c4)n2)[C@@H](C)O3)CC1` [US20240270732, Compound I-71], 23.9 nM corresponded to half-maximal inhibition (IC50).
Under `CN1C(=O)[C@@H](NC(=O)c2n[nH]c(Cc3ccccc3)n2)COc2ccc(C#CCN3CCN(CC#Cc4ccc5c(c4)N(C)C(=O)[C@@H](NC(=O)c4n[nH]c(Cc6ccccc6)n4)CO5)CC3)cc21` [US20240270732, Compound I-11] stands 1.96 nM.
As for `C[C@H]1Oc2ccc(C#CCN3CCN(CC#Cc4ccc5c(c4)N(C)C(=O)[C@@H](NC(=O)c4n[nH]c(Cc6ccccc6)n4)CO5)CC3)cc2N(C)C(=O)[C@H]1NC(=O)c1ncn(Cc2ccccc2)n1` [US20240270732, Compound I-12], the figure is 2.75 nM; as for `C[C@H]1Oc2ccc(C#CCN3CCN(CC#Cc4ccc5c(c4)N(C)C(=O)[C@@H](NC(=O)c4ncn(Cc6ccccc6)n4)CO5)CC3)cc2N(C)C(=O)[C@H]1NC(=O)c1n[nH]c(Cc2ccccc2)n1` [US20240270732, Compound I-5], 3.35 nM.
Under `CN1C(=O)[C@@H](NC(=O)c2cn(Cc3ccccc3)cn2)COc2ccc(C#CCN3CCN(CC#Cc4ccc5c(c4)N(C)C(=O)[C@@H](NC(=O)c4ncn(Cc6ccccc6)n4)CO5)CC3)cc21` [US20240270732, Compound I-34] stands 4.68 nM.
For the compound `C[C@H]1Oc2ccc(C#CCN3CCN(CC#Cc4ccc5c(c4)N(C)C(=O)[C@@H](NC(=O)c4nnn(Cc6ccccc6)n4)[C@@H](C)O5)CC3)cc2N(C)C(=O)[C@H]1NC(=O)c1ncn(Cc2ccccc2)n1` [US20240270732, Compound I-25], the IC50 was found to be 3.39 nM.
As for `C#CCN1CCN(CC#Cc2ccc3c(c2)N(C)C(=O)[C@@H](NC(=O)c2n[nH]c(Cc4ccncc4)n2)[C@@H](C)O3)CC1` [US20240270732, Compound I-65], the figure is 20.7 nM; as for `C#CCN1CCN(CC#Cc2ccc3c(c2)N(C)C(=O)[C@@H](NC(=O)c2ncn(Cc4ccccc4)n2)[C@@H](C)O3)CC1` [US20240270732, Compound I-37], 4.17 nM.
As for `C#CCOCCOCCOCCOCCOCC#Cc1ccc2c(c1)N(C)C(=O)[C@@H](NC(=O)c1n[nH]c(Cc3ccccc3)n1)CO2` [US20240270732, Compound I-82-2], the figure is 7.15 nM; as for `C#Cc1ccc2c(c1)N(C)C(=O)[C@@H](NC(=O)c1nc(Cc3ccccc3)n[nH]1)[C@@H](C)O2` [US20240270732, Compound I-119], 9.81 nM; as for `C#CCN1CCN(CC#Cc2ccc3c(c2)N(C)C(=O)[C@@H](NC(=O)c2noc(Cc4ccccc4)n2)[C@@H](C)O3)CC1` [US20240270732, Compound I-51], 15.9 nM.
As for `C[C@H]1Oc2ccc(C#CCN3CCN(CC#Cc4ccc5c(c4)N(C)C(=O)[C@@H](NC(=O)c4n[nH]c(Cc6cccnc6)n4)[C@@H](C)O5)CC3)cc2N(C)C(=O)[C@H]1NC(=O)c1n[nH]c(Cc2cccnc2)n1` [US20240270732, Compound I-68], the figure is 16 nM; as for `C[C@H]1Oc2ccc(C#Cc3cccc(S(=O)(=O)O)c3)cc2N(C)C(=O)[C@H]1NC(=O)c1n[nH]c(Cc2ccccc2)n1` [US20240270732, Compound I-113], 9.35 nM; as for `C[C@@H]1Oc2ccc(C#CCN3CCN(CC#Cc4ccc5c(c4)N(C)C(=O)[C@@H](NC(=O)c4n[nH]c(Cc6ccccc6)n4)[C@H](C)O5)CC3)cc2N(C)C(=O)[C@H]1NC(=O)c1n[nH]c(Cc2ccccc2)n1` [US20240270732, Compound I-19], 62.3 nM.
`C[C@H]1Oc2ccc(C#CCN3CCN(CC#Cc4ccc5c(c4)N(C)C(=O)[C@@H](NC(=O)c4noc(Cc6ccccc6)n4)[C@@H](C)O5)CC3)cc2N(C)C(=O)[C@H]1NC(=O)c1noc(Cc2ccccc2)n1` [US20240270732, Compound I-52]: the IC50 stood at 13.3 nM.
As for `CN1C(=O)[C@@H](NC(=O)c2ncn(Cc3ccccc3)n2)COc2ccc(C#CCN3CCN(CC#Cc4ccc5c(c4)N(C)C(=O)[C@@H](NC(=O)c4ncn(Cc6ccccc6)n4)CO5)CC3)cc21` [US20240270732, Compound I-32], the figure is 3.08 nM.
As for `C[C@H]1Oc2ccc(C#Cc3cccc(N)c3)cc2N(C)C(=O)[C@H]1NC(=O)c1ncn(Cc2ccccc2)n1` [US20240270732, Compound I-118], the figure is 13.8 nM; as for `C[C@H]1Oc2ccc(C#CCN3CCN(CC#Cc4ccc5c(c4)N(C)C(=O)[C@@H](NC(=O)c4cn(Cc6ccccc6)cn4)[C@@H](C)O5)CC3)cc2N(C)C(=O)[C@H]1NC(=O)c1cn(Cc2ccccc2)cn1` [US20240270732, Compound I-60], 9.91 nM.
As for `C[C@H]1Oc2ccc(C#CCN3CCN(CC#Cc4ccc5c(c4)N(C)C(=O)[C@@H](NC(=O)c4cnn(Cc6ccccc6)c4)[C@@H](C)O5)CC3)cc2N(C)C(=O)[C@H]1NC(=O)c1cnn(Cc2ccccc2)c1` [US20240270732, Compound I-48], the figure is 13.3 nM; as for `C[C@H]1Oc2ccc(C#Cc3cccc(S(=O)(=O)O)c3)cc2N(C)C(=O)[C@H]1NC(=O)c1ncn(Cc2ccccc2)n1` [US20240270732, Compound I-114], 11.7 nM.
The compound `COCCOCCOCCOCCOCC#Cc1ccc2c(c1)N(C)C(=O)[C@@H](NC(=O)c1n[nH]c(Cc3ccccc3)n1)[C@@H](C)O2` [US20240270732, Compound I-99] gave an IC50 of 2.39 nM.
As for `C#CCN1CCN(CC#Cc2ccc3c(c2)N(C)C(=O)[C@@H](NC(=O)c2ncn(Cc4cccnc4)n2)[C@@H](C)O3)CC1` [US20240270732, Compound I-73], the figure is 19.1 nM; as for `C[C@H]1Oc2ccc(C#CCOCCOCCOCCOCCOCC#Cc3ccc4c(c3)N(C)C(=O)[C@@H](NC(=O)c3ncn(Cc5ccccc5)n3)[C@@H](C)O4)cc2N(C)C(=O)[C@H]1NC(=O)c1ncn(Cc2ccccc2)n1` [US20240270732, Compound I-84-1], 8.99 nM; as for `C#CCN1CCN(CC#Cc2ccc3c(c2)N(C)C(=O)[C@@H](NC(=O)c2cn(Cc4ccccc4)cn2)[C@H](C)O3)CC1` [US20240270732, Compound I-63], 59.2 nM.
